Results published in patent US9682031B2, “Microcapsules comprising benzoyl peroxide and topical compositions comprising them” (Tagra Biotechnologies Ltd., priority 2009, dated 2017).

Legend:
Assay type in all cases: physicochemical
[1] = Chemical stability of BPO in aqueous gel formulation, 40° C., 90 days (HPLC); details: 5% BPO, 90 days at 40° C. (FIG. 21)
Experimental: Geogard (0.7 g, Lonza) was dissolved in water by heating to 40-50° C. and the solution was allowed to cool to room temperature. Clindamycin phosphate was optionally dissolved in the solution (in formulations comprising antibiotics). Xanthan gum (1 g, Interaxion) was slowly added under medium mixing until the xanthan gum gel was formed. BPO microcapsules were then added to the gel by simple mixing. The composition of the gel formulation is detailed in Table 8 below.
BPO microcapsules were incorporated into the gel formulation (gel base comprising no clindamycin) at final BPO concentration of 5% and incubated at 40° C. over 90 days. Stability studies were performed for compositions comprising only encapsulated BPO or encapsulated BPO in combination with 0.75-1% of Clindamycin Phosphate. BPO concentration was determined immediately after incorporation into gel formulation and after 30, 60 and 90 days. Total concentration of BPO was determined by mixing 1 gr of the gel formulation with dichloromethane/methanollacetonitrile solution. BPO concentration in water phase was determined after separation of microcapsules from gel by centrifugation. The water phase was mixed with dichloromethane/methanol/acetonitrile solution in order to extract BPO and its content was determined using HPLC.

[2] = Congo red oxidation sensitivity / qualitative diffusion test; details: microcapsules = sample 2 (PMMA-BPO); 4% (w/w) BPO free or encapsulated, BPO/congo red 30:1, 50-55° C.
Experimental: Azo-dye congo red was used as a model for oxidation-sensitive component, the ratio BPO/congo red=30:1(w/w).
Three comparative systems were utilized: • 1—BPO microcapsules (sample 2) • 2—free BPO • 3—without BPO (blank)
For the preparation of (1) and (2), 9 g (ml) aqueous dispersion containing 4% (w/w) BPO (free or encapsulated) were suspended with 0.1% Tween™ 20 (polysorbate 20) and 9 g liquid vehicle and stirred in a 25 ml beaker with a magnetic stirrer. Following a mixing period of 30 minutes, the temperature of the system was raised to 50-55° C. and 1 ml of a 1% aqueous solution of congo red were added. The blank system (3) was prepared by stirring 9 ml 0.1% Tween™ 20 and 9 g liquid vehicle, and adding 1 ml of a 1% aqueous solution of congo red. After stirring the suspension for 1 minute, pictures of the three systems were taken.

[3] = Chemical stability of BPO in gel containing 1% free retinol, 40° C., 30 days (HPLC); details: encapsulated = sample 21; gel with 1% free retinol, 5% BPO, 30 days storage at 40° C.
Experimental: HPLC was used for BPO analysis following storage at 40° C. (encapsulated BPO vs. free BPO in a gel formulation containing 1% free retinol).

- decrease in the concentration of BPO [1]: negligible decrease
- color of congo red solution [2]: changed its color from red to yellow
- relative content of BPO from the initial concentration [3]: 36%
SMILES: O=C(OOC(=O)c1ccccc1)c1ccccc1 [free BPO, benzoyl peroxide]
